Test results taken from the SangsterLogP compilation.

logP | SMILES
3.74 | COc1ccc2cc(C(C)C(=O)OCC(C)O)ccc2c1 (centres undefined)
4.78 | CCOC(=O)C(C)c1ccc2cc(OC)ccc2c1 (centres undefined)
6.31 | CC=CC=CCOC(=O)C(C)c1ccc2cc(OC)ccc2c1 (centres undefined)
3.73 | COc1ccc2cc(C(C)C(=O)OCCCO)ccc2c1 (centres undefined)
6.21 | CCC=CCCOC(=O)C(C)c1ccc2cc(OC)ccc2c1 (centres undefined)
6.02 | CCCCCOC(=O)C(C)c1ccc2cc(OC)ccc2c1 (centres undefined)
4.06 | COc1ccc2cc(C(C)C(=O)OCC(C)=O)ccc2c1 (centres undefined)
5.34 | CCCOC(=O)C(C)c1ccc2cc(OC)ccc2c1 (centres undefined)
5.81 | CCCCOC(=O)C(C)c1ccc2cc(OC)ccc2c1 (centres undefined)
4.6 | COC(=O)C(C)c1ccc2cc(OC)ccc2c1 (centres undefined)
3.05 | COc1ccc2cc(C(C)C(=O)OCCO)ccc2c1 (centres undefined)

The remaining lines, values behind:

SMILES | logP
CCCCCCOC(=O)C(C)c1ccc2cc(OC)ccc2c1 (centres undefined) | 6.54
COc1ccc2cc(C(C)C(=O)OCCCCCCO)ccc2c1 (centres undefined) | 4.74
CCCCCCCCOC(=O)C(C)c1ccc2cc(OC)ccc2c1 (centres undefined) | 7.66
CCCCCCCOC(=O)C(C)c1ccc2cc(OC)ccc2c1 (centres undefined) | 7.21
COc1ccc2cc(C(C)C(=O)OC3COC4C(O)COC34)ccc2c1 (centres undefined) | 3.14
COc1ccc2cc(C(C)C(=O)OCC=C(C)CCC=C(C)C)ccc2c1 (centres undefined) | 7.77
CCC#CCCOC(=O)C(C)c1ccc2cc(OC)ccc2c1 (centres undefined) | 5.91
COc1ccc2cc(C(C)C(=O)OC(C)C)ccc2c1 (centres undefined) | 4.98
COc1ccc2cc(C(C)C(=O)OC3CCCCC3=O)ccc2c1 (centres undefined) | 4.96
COc1ccc2cc(C(C)C(=O)OC3CCCCC3)ccc2c1 (centres undefined) | 5.82
COc1ccc2cc(C(C)C(=O)OC3CCCCC3O)ccc2c1 (centres undefined) | 4.71
COc1ccc2cc(C(C)C(=O)Oc3ccccc3)ccc2c1 (centres undefined) | 5.17
COc1ccc2cc(C(C)C(=O)OCCOCCO)ccc2c1 (centres undefined) | 3.79
